These are literature values, as cited in patent US8034799B2, “Preventing and/or treating cardiovascular disease and/or associated heart failure” (Philera New Zealand Limited, priority 2002, dated 2011).

Molecules are shown by their SMILES.

The data set relates to diabetic rats. The following applies: treatment of diabetic rats; cited from earlier work.

For `N=C(N)NN` [aminoguanidine], the aortic impedance entry is on record as “decreases”, the carotid artery compliance entry is on record as “increased” and the myocardial compliance entry is recorded as “prevented the decreased myocardial compliance”.
